Laboratory results published in US10717753B2, “Deuterium-modified brigatinib derivatives, pharmaceutical compositions comprising same, and use thereof” (Chia Tai Tianqing Pharmaceutical Group Co., Ltd., priority 2015, dated 2020).

Key:
[1] = test system: human lung cancer cell NCI-H3122; assay: Inhibition of proliferation in vitro, SRB method; assay type: cell-based; conditions: NCI-H3122 cells expressing EML4-ALK fusion protein, 72 hours, mean±standard deviation
Protocol: 1.1 Cells: human lung cancer cell line NCl—H3122, expressing EML4-ALK fusion protein.
1.2 Main reagents: sulfonyl rhodamine B, RPMI-1640 liquid medium, dimethyl sulfoxide (DMSO), trichloromethane (chloroform).
1.3 Instruments: Varioskan Flash microplate reader.
1.4 Solution preparation: an appropriate amount of a series of test compounds was taken and dissolved using 5% chloroform+95% DMSO, to form a stock solution of 20 mM, which was stored at −20° C. in aliquots. The positive drug Crizotinib was taken and dissolved using 5% chloroform+95% DMSO, and the stock solution was diluted with fresh medium to a working concentration before use. 95 μl DMSO and 5 μl chloroform were taken, mixed together, and diluted with fresh medium to a working concentration before use.
The tumor cell line used in tests was cultured in RPM11640 medium containing 10% inactivated Hyclone serum or fetal bovine serum, 100 IU/mL penicillin and 100 IU/mL streptomycin, in a 5% CO2 incubator at 37° C. NCl—H3122 cells were inoculated into a 96-well plate at 5000/well. It was ensured that the cells were in logarithmic growth phase during the whole test.
Groups of series of test compounds, negative control and Crizotinib (positive control) were set up in this test. For each test compound group, 6 concentration gradients by 3-fold serial dilution were set, and three wells were for each concentration. For positive control group, 6 concentration gradients by 3-fold serial dilution were set, and three wells were for each concentration. Negative control was 5% chloroform+95% DMSO (the same concentration as that of test compound at 100 nM), and 6 wells were set.
After the cells were treated with the drugs for 72 hours, the culture medium was discarded. A pre-chilled 10% trichloroacetic acid (TCA) solution was added into each well to fix the cells and the plate was placed in a refrigerator at 4° C. to fix. Each well of the plate was washed with deionized water for 5 times to remove trichloroacetic acid solution. After being dried in air, each well was added with SRB solution (4 mg/ml) prepared with 1% acetic acid and then kept for 20 minutes at room temperature. After the liquid was discarded, each well was washed with 1% acetic acid for 5 times to remove uncombined SRB dye, and then dried in air. An appropriate volume of 10 mM Tris-base (trimethylolamine methane) solution at pH 10.5 was added into each well to dissolve the cells. The plate was shaken on a plate shaker for 10 minutes. The absorbance (OD) value was measured at a wavelength of 490 nm in a microplate reader.
According to the OD values measured by microplate reader, an inhibition rate was calculated as the following formula: Survival rate (%)=OD of drug well/OD of control well×100%,
If the survival rate was ≥100%, it was recorded as 100%.
Using Calcusyn software, IC50 was calculated, and mean and standard deviation thereof were calculated, and the data was expressed as: mean±standard deviation.

[2] = Stability in monkey liver microsomes in vitro; assay type: in vitro ADME; conditions: for half-life at 0.01 μmol/L: monkey liver microsomes 0.5 mg/mL protein, NADPH, 37° C., 1 μmol/L test compound; for half-life period compared to the original drug Brigatinib: monkey liver microsomes, statement in words; for Prolonging rates: prolongation of t1/2 in monkey liver microsomes versus Brigatinib
Protocol: 300 μL of a final incubation system contains 30 μL of monkey liver microsomes (protein concentration: 0.5 mg/mL, American BD Company), 30 μL of NADPH+MgCl2, 3 μL of a substrate (a solution of 1 μmol/L test compound in acetonitrile) and 237 μL of PBS buffer solution. The above incubation system was made in duplicate, each of 0.3 mL.
For each sample, an evenly mixed solution of the substrate and enzyme with a total volume of 270 μL was first prepared, and after pre-incubation at 37° C. for 5 min, 30 μL of NADPH+MgCl2 was added and mixed. 40 μL of the reaction solution was taken respectively at 0, 15, 30, 60 and 90 min, and the reaction was stopped by 300 μL of ice-cold acetonitrile containing an internal standard. In addition, three blanks (KB) were set, each of 300 μL (KB1: no NADPH; KB2: no substrate; KB3: no enzyme).
40 μL of the incubation sample was pipetted out, added with 400 μL of ice-cold acetonitrile containing an internal standard, vortexed for 5 min and centrifuged (13000 rpm, 4° C.) for 10 min. 80 μL of the supernatant was pipetted out in a loading plate, and then 80 μL of 50% acetonitrile aqueous solution was added to the plate and mixed. 1 μL of the mixture was pipetted out for LC/MS/MS assay and the chromatogram was recorded.

| Structure (SMILES) | IC50 [1] | half-life at 0.01 μmol/L [2] | half-life period compared to the original drug Brigatinib [2] | Prolonging rates [2] |
| --- | --- | --- | --- | --- |
| COc1cc(N2CCC(N3CCN(C)CC3)CC2)ccc1Nc1ncc(Cl)c(Nc2ccccc2P(C)(C)=O)n1 [Brigatinib, 5-chloro-N^4-[2-(dimethylphosphonyl)phenyl]-N^2-{2-methoxy-4-[4-(4-methylpiperazin-1-yl)piperidin-1-yl]phenyl}pyrimidine-2,4-diamine] | 13.3 ± 1.6 nM | 2.83 h | – | – |
| [2H]C([2H])([2H])Oc1cc(N2CCC(N3CCN(C)CC3)CC2)ccc1Nc1ncc(Cl)c(Nc2ccccc2P(C)(C)=O)n1 [Compound I-1, (2-((5-chloro-2-((2-[D3]methoxy-4-(4-(4-methylpiperazin-1-yl)piperidin-1-yl)phenyl)amino)pyrimidin-4-yl)amino)phenyl)dimethyl phosphorus oxide] | 10 ± 1.05 nM | 3.82 h | significantly prolong the half-life period | 35% |
| [2H]C([2H])([2H])N1CCN(C2CCN(c3ccc(Nc4ncc(Cl)c(Nc5ccccc5P(C)(C)=O)n4)c(OC)c3)CC2)CC1 [Compound I-2, (2-((5-chloro-2-((2-methoxy-4-(4-(4-[D3]methylpiperazin-1-yl)piperidin-1-yl)phenyl)amino)pyrimidin-4-yl)amino)phenyl)dimethyl phosphorus oxide] | 9.45 ± 1.79 nM | 3.93 h | significantly prolong the half-life period | 39% |
| [2H]C([2H])([2H])Oc1cc(N2CCC(N3CCN(C([2H])([2H])[2H])CC3)CC2)ccc1Nc1ncc(Cl)c(Nc2ccccc2P(C)(C)=O)n1 [Compound I-3, (2-((5-chloro-2-((2-[D3]methoxy-4-(4-(4-[D3]methylpiperazin-1-yl)piperidin-1-yl)phenyl)amino)pyrimidin-4-yl)amino)phenyl)dimethyl phosphorus oxide] | 12.7 ± 2.37 nM | 3.32 h | – | 17% |
| [2H]C1([2H])CN(C)CC([2H])([2H])N1C1CCN(c2ccc(Nc3ncc(Cl)c(Nc4ccccc4P(C)(C)=O)n3)c(OC)c2)CC1 [Compound I-4, (2-((5-chloro-2-((2-methoxy-4-(4-(4-methyl[2,2,6,6-D4]piperazin-1-yl)piperidine-1-yl)phenyl)amino)pyrimidin-4-yl)amino)phenyl)dimethyl phosphorus oxide] | 11.1 ± 2.07 nM | 2.93 h | – | 4% |
| [2H]C1([2H])N(C)C([2H])([2H])C([2H])([2H])N(C2CCN(c3ccc(Nc4ncc(Cl)c(Nc5ccccc5P(C)(C)=O)n4)c(OC)c3)CC2)C1([2H])[2H] [Compound I-6, (2-((5-chloro-2-((2-methoxy-4-(4-(4-methyl[D8]piperazin-1-yl)piperidin-1-yl)phenyl)amino)pyrimidin-4-yl)amino)phenyl)dimethyl phosphorus oxide] | 9.99 ± 2.31 nM | 3.72 h | significantly prolong the half-life period | 31% |
| [2H]C([2H])([2H])N1C([2H])([2H])CN(C2CCN(c3ccc(Nc4ncc(Cl)c(Nc5ccccc5P(C)(C)=O)n4)c(OC)c3)CC2)CC1([2H])[2H] [Compound I-7] | 9.89 ± 0.76 nM | 3.78 h | significantly prolong the half-life period | 34% |
| [2H]C1([2H])CN(C2CCN(c3ccc(Nc4ncc(Cl)c(Nc5ccccc5P(C)(C)=O)n4)c(OC)c3)CC2)CC([2H])([2H])N1C [Compound I-9, (2-((5-chloro-2-((2-methoxy-4-(4-(4-methyl[3,3,5,5-D4]piperazin-1-yl)piperidin-1-yl)phenyl)amino)pyrimidin-4-yl)amino)phenyl)dimethyl phosphorus oxide] | 7.65 ± 1.07 nM | 3.57 h | – | 26% |
| C[C@@H](Oc1cc(-c2cnn(C3CCNCC3)c2)cnc1N)c1c(Cl)ccc(F)c1Cl [Crizotinib, reference compound] | 11.1 ± 0.69 nM | – | – | – |
